Experimental data taken from the Kinase Knowledgebase extract (Sharma et al. 2016).

The molecules below were run against MAPK14 (UniProt Q16539) (assay: MAPK14 (p38) Inhibition). Details: concentration not given here.
MAPK14, sequence (Q16539 whole entry, looked up): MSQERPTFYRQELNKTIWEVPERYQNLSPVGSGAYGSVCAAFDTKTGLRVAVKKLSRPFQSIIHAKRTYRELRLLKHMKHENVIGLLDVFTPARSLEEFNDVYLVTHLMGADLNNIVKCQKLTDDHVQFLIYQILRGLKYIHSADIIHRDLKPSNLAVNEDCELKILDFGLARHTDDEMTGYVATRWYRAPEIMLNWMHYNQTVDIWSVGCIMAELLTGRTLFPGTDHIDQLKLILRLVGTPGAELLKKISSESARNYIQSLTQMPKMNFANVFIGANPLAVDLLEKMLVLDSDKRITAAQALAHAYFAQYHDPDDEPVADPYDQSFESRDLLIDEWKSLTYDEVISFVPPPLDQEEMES

inhibition | SMILES
93% | Fc1ccc(-c2[nH]c(C=C(Br)Br)nc2-c2ccncc2)cc1
99% | OCCCC#Cc1nc(-c2ccc(F)cc2)c(-c2ccncc2)n1CCCc1ccccc1
98% | OCCCCC#Cc1nc(-c2ccc(F)cc2)c(-c2ccncc2)n1CCCc1ccccc1

SMILES | inhibition
C[Si](C)(C)CCOCn1c(C=C(Br)Br)nc(-c2ccncc2)c1-c1ccc(F)cc1 | 16%

The molecules below were run against MAPK14 (human) (UniProt Q16539) (assay: TNF-alpha Inhibition (PBMC)). Details: not given.
MAPK14 (human), sequence (Q16539 whole entry, looked up): as above

IC50 | SMILES
> 2000 nM | C[Si](C)(C)CCOCn1c(C#CCCCCO)nc(-c2ccncc2)c1-c1ccc(F)cc1
400 nM | O[C@@H](C#Cc1nc(-c2ccncc2)c(-c2ccc(F)cc2)[nH]1)c1ccccc1
> 2000 nM | C[Si](C)(C)CCOCn1c(C#CCCCC#N)nc(-c2ccncc2)c1-c1ccc(F)cc1
90 nM | CCCCCCC#Cc1nc(-c2ccc(F)cc2)c(-c2ccncc2)n1CCCc1ccccc1

The molecules below were run on MAPK14 (BALB/cJ mice) (assay: TNF-alpha Inhibition (Mice Model)). Details: dose or concentration not given here.

SMILES | inhibition
N#CCCCC#Cc1nc(-c2ccc(F)cc2)c(-c2ccncc2)[nH]1 | 95%
